Results from the NIST ThermoML archive (doi:10.1021/acs.jced.5b00451).

Assay: mn = molality of the nth substance listed, in mol/kg
Details: 101.33 kPa, Liquid, Vibrating tube method

CCCCCCCCCC[N+](C)(C)C.[Br-] [N,N,N-trimethyl-1-decanaminium bromide] + O
mass density [kg/m3]
Details | m1 = 0.01879 | m1 = 0.02836 | m1 = 0.04784 | m1 = 0.05741 | m1 = 0.06268 | m1 = 0.0767 | m1 = 0.08783 | m1 = 0.09727 | m1 = 0.1206 | m1 = 0.1383
293.15 K | 998.685 | 998.921 | 999.399 | 999.635 | 999.765 | 1000.05 | 1000.28 | 1000.47 | 1000.86 | 1001.23
298.15 K | 997.496 | 997.716 | 998.157 | 998.379 | 998.511 | 998.788 | 998.987 | 999.17 | 999.597 | 999.91
303.15 K | 996.082 | 996.312 | 996.748 | 996.949 | 997.055 | 997.334 | 997.534 | 997.707 | 998.105 | 998.375

CCCCCCCCCCCCCCCC[N+](C)(C)C.[Br-] [N,N,N-trimethyl-1-hexadecanaminium bromide] + O
mass density [kg/m3]
Details | 293.15 K | 298.15 K | 303.15 K
m1 = 0.00082 | 998.23 | 997.052 | 995.673
m1 = 0.00093 | 998.234 | 997.055 | 995.669
m1 = 0.00104 | 998.238 | 997.058 | 995.669
m1 = 0.00205 | 998.239 | 997.06 | 995.666
m1 = 0.00309 | 998.245 | 997.062 | 995.67
m1 = 0.00411 | 998.243 | 997.065 | 995.678
m1 = 0.00625 | 998.254 | 997.073 | 995.681
m1 = 0.00726 | 998.258 | 997.076 | 995.678
m1 = 0.00801 | 998.255 | 997.076 | 995.687
m1 = 0.00931 | 998.264 | 997.078 | 995.679
m1 = 0.01038 | 998.274 | 997.082 | 995.679
m1 = 0.01139 | 998.276 | 997.089 | 995.693
m1 = 0.01252 | 998.279 | 997.093 | 995.676
m1 = 0.01454 | 998.293 | 997.098 | 995.699
m1 = 0.01561 | 998.296 | 997.105 | 995.676

CCCCCCCCCCCC[N+](C)(C)C.[Br-] [dodecyltrimethylammonium bromide] + O
mass density [kg/m3]
Details | 293.15 K | 298.15 K | 303.15 K
m1 = 0.00799 | 998.38 | 997.201 | 995.799
m1 = 0.00998 | 998.422 | 997.244 | 995.839
m1 = 0.01168 | 998.455 | 997.278 | 995.868
m1 = 0.01448 | 998.514 | 997.332 | 995.921
m1 = 0.01695 | 998.566 | 997.376 | 995.96
m1 = 0.01883 | 998.601 | 997.406 | 995.987
m1 = 0.02825 | 998.739 | 997.528 | 996.106
m1 = 0.04703 | 998.998 | 997.783 | 996.34
m1 = 0.09497 | 999.663 | 998.401 | 996.928
m1 = 0.1963 | 1001.05 | 999.701 | 998.119
m1 = 0.301 | 1002.39 | 1000.96 | 999.316

CCCCCC[N+](C)(C)C.[Br-] [hexyltrimethylammonium bromide] + O
mass density [kg/m3]
Details | 293.15 K | 298.15 K | 303.15 K
m1 = 0.04932 | 999.719 | 998.528 | 997.065
m1 = 0.07746 | 1000.55 | 999.34 | 997.873
m1 = 0.08812 | 1000.88 | 999.654 | 998.174
m1 = 0.1186 | 1001.76 | 1000.52 | 999.049
m1 = 0.1774 | 1003.49 | 1002.19 | 1000.78
m1 = 0.1855 | 1003.72 | 1002.41 | 1000.97
m1 = 0.2757 | 1006.26 | 1004.93 | 1003.53
m1 = 0.3712 | 1008.99 | 1007.66 | 1006.15
m1 = 0.4703 | 1011.8 | 1010.34 | 1008.8
m1 = 0.5274 | 1013.14 | 1011.76 | 1010.3
m1 = 0.5803 | 1014.75 | 1013.13 | 1011.67
m1 = 0.636 | 1016.19 | 1014.59 | 1013.12

CCCCCCCC[N+](C)(C)C.[Br-] [octyl trimethyl ammonium bromide] + O
mass density [kg/m3]
Details | m1 = 0.04535 | m1 = 0.09122 | m1 = 0.1223 | m1 = 0.1444 | m1 = 0.1759 | m1 = 0.1958 | m1 = 0.2338 | m1 = 0.2621 | m1 = 0.2773 | m1 = 0.3003
293.15 K | 999.46 | 1000.72 | 1001.54 | 1002.14 | 1002.97 | 1003.52 | 1004.58 | 1005.29 | 1005.65 | 1006.33
298.15 K | 998.261 | 999.486 | 1000.3 | 1000.84 | 1001.75 | 1002.13 | 1003.15 | 1003.84 | 1004.24 | 1004.76
303.15 K | 996.848 | 998.045 | 998.815 | 999.391 | 1000.2 | 1000.69 | 1001.63 | 1002.32 | 1002.69 | 1003.25

CCCCCCCCCCCCCC[N+](C)(C)C.[Br-] [tetradecyltrimethylammonium bromide] + O
mass density [kg/m3]
Details | 293.15 K | 298.15 K | 303.15 K
m1 = 0.00291 | 998.259 | 997.091 | 995.687
m1 = 0.00325 | 998.265 | 997.097 | 995.692
m1 = 0.00379 | 998.273 | 997.103 | 995.706
m1 = 0.00393 | 998.275 | 997.105 | 995.704
m1 = 0.0049 | 998.286 | 997.115 | 995.708
m1 = 0.0065 | 998.302 | 997.127 | 995.727
m1 = 0.00821 | 998.32 | 997.144 | 995.739
m1 = 0.01087 | 998.344 | 997.164 | 995.749
m1 = 0.04969 | 998.72 | 997.499 | 996.055
m1 = 0.09742 | 999.176 | 997.906 | 996.41
m1 = 0.1468 | 999.632 | 998.322 | 996.79
m1 = 0.1955 | 1000.08 | 998.719 | 997.144
m1 = 0.3023 | 1001 | 999.537 | 997.713
